Test results: patent US20160361255A1, “Peptide Nanotubes for Slow Release of Drugs at Peripheral Nerve Injury” (The University of Toledo, priority 2015, published 2016)

How the values were obtained:
phosphorylated CREB [1] = assay: Nuclear phospho-CREB immunostaining in cortical neurons; format: cell-based, mouse; conditions: 1 μM, 24 h
Method: (§1) Differentiated PC12 cells and mouse embryonic cortical neurons (E17, DIV14) were treated with mock, dextran, alginate, HA-GAGR or midi-GAGR (1 μM) for 24 h and fixed in 3.7% paraformaldehyde. The fixed cells and neurons were immunostained with antibodies against α-tubulin and phospho-CREB (p-CREB) along with DAPI (nucleus).

phosphorylated CREB [2] = assay: Nuclear phospho-CREB immunostaining in PC12 cells; format: cell-based; conditions: 1 μM, 24 h
Method: as §1

[3] = tested on: differentiated dopaminergic PC12 cells; assay: LIVE/DEAD viability of differentiated PC12 cells exposed to 6-OHDA; format: cell-based; conditions: 1 μM for 6 h, then 30 μM 6-OHDA for 24 h
Method: Differentiated dopaminergic PC12 cells and primary mouse embryonic cortical neurons (E17, DIV14) were treated with mock (H2O) or 1 μM of dextran, alginate, HA-GAGR or midi-GAGR for 6 h and insulated by oxidative stressors (30 μM 6-OHDA [PC12] and 10 μM amyloid β peptide [cortical neurons]) for 24 h. The viability of neurons was assessed using LIVE/DEAD Viability/Cytotoxicity Assay Kit (Invitrogen).

[4] = tested on: rat embryonic cortical neurons; assay: Scholl ring analysis of cortical neurons exposed to 4-HNE; format: cell-based; conditions: pretreatment 2 days, then 25 μM 4-HNE 1 day
Method: Rat embryonic cortical neurons were treated with mock (FIG. 11C), 1 μM HA-GAGR (high acyl gellan gum), 1 μM dextran, 100 μM ascorbate or 1 μM midi-GAGR (FIG. 11D) for 2 days and then with 25 μM 4-hydroxynonenal (4-HNE), a lipid peroxide, for 1 day. After fixation, neurons were immunostained with anti-synaptophysin antibody (green) and rhodamine-phalloidin (actin: red). Scholl ring analysis was performed. Neurons pre-treated with mock, dextran or ascorbate lost neuritis (neuritic atrophy) in the presence of 4-HNE.

[5] = cited from earlier work
[6] = even at high doses (~200 mg/kg); cited from earlier work
[7] = ABTS Antioxidant Assay Kit; format: biochemical; conditions: 10 μM
Method: The antioxidant capacity of midi-GAGR was measured using ABTS Antioxidant Assay Kit (Zenbio Co.). […] This was slightly stronger than antioxidant capacity of LA-GAGR (10 μM LA-GAGR=15.4 μM Trolox) (Table 2)

Row | Substance | increase of nuclear p-CREB levels (phosphorylated CREB [1]) | increase of nuclear p-CREB levels (phosphorylated CREB [2]) | 6-OHDA-induced cell death [3] | neurites (neuritic atrophy) in the presence of 4-HNE [4] | oral bioavailability [5] | side effects in humans [6] | antioxidant capacity [7] [μM Trolox]
1 | alginate | not significantly increased | not significantly increased | did not | – | – | – | –
2 | dextran | not significantly increased | not significantly increased | did not | lost neuritis | – | – | –
3 | high acyl gellan gum [HA-GAGR] | not significantly increased | not significantly increased | – | formed neuritis, but less branched | – | – | –
4 | low acyl gellan gum [LA-GAGR] | – | – | – | – | good | few side effects | 15.4
